Measured values published in ChEMBL document CHEMBL3779887, “Robenidine Analogues as Gram-Positive Antibacterial Agents” (J Med Chem, 2016).
Converted amounts (≈) assume the structure as drawn. The source made the active and inactive calls. No cut-off for these calls is given here.

What was measured:
Staphylococcus aureus [1] = assay: Bactericidal activity against […] Staphylococcus aureus clinical isolate USA300 assessed as log reduction in bacterial cell number at 4 times MIC after 8 hrs by time-kill curve analysis; format: functional
Staphylococcus aureus [2] = assay: Antibacterial activity against methicillin-sensitive Staphylococcus aureus ATCC 25923 after 20 to 24 hrs; format: functional
Staphylococcus aureus [3] = assay: Bactericidal activity against […] Staphylococcus aureus clinical isolate USA300 assessed as log reduction in bacterial cell number at 4 times MIC after 24 hrs by time-kill curve analysis; format: functional, organism-based
Staphylococcus aureus [4] = assay: Bactericidal activity against methicillin-sensitive Staphylococcus aureus ATCC 29213 assessed as log reduction in bacterial cell number at 4 times MIC after 8 hrs by time-kill curve analysis; format: functional
Enterococcus = assay: Antibacterial activity against vancomycin-resistant Enterococcus after 20 to 24 hrs; format: functional
Staphylococcus aureus [5] = assay: Inhibition of biofilm formation in methicillin-resistant Staphylococcus aureus after 24 hrs by MBEC assay; format: functional
Staphylococcus aureus [6] = assay: Bactericidal activity against methicillin-sensitive Staphylococcus aureus ATCC 25923 after 24 and 48 hrs; format: functional
Staphylococcus aureus [7] = assay: Ratio of MBC for methicillin-sensitive Staphylococcus aureus ATCC 29213 to MIC90 for methicillin-sensitive Staphylococcus aureus ATCC 29213; format: functional
[8] = Selectivity index, ratio of GI50 for human HEL299 cells to MIC50 for methicillin-sensitive Staphylococcus aureus clinical isolate; format: functional, HEL 299
Staphylococcus aureus [9] = assay: Bactericidal activity against Methicillin-sensitive Staphylococcus aureus ATCC 29213 assessed as log reduction in bacterial cell number at 8 times MIC after 24 hrs by time-kill curve analysis; format: functional, organism-based
[10] = Toxicity in sheep erythrocytes assessed as hemolysis after 30 mins; format: cell-based, Ovis aries; settings: erythrocyte, 0.5 h
[11] = Toxicity in po dosed female rabbit; format: organism-based, Oryctolagus cuniculus; settings: in vivo
[12] = Selectivity index, ratio of GI50 for human HEL299 cells to MIC50 for methicillin-resistant Staphylococcus aureus clinical isolate; format: functional, HEL 299
[13] = Metabolic stability in mouse liver microsomes assessed as compound loss after 60 mins; format: ADME; settings: read-out: Drug degradation
Staphylococcus aureus [14] = assay: Bactericidal activity against Methicillin-sensitive Staphylococcus aureus ATCC 29213 assessed as log reduction in bacterial cell number at MIC after 8 hrs by time kill curve analysis
[15] = Lipophilicity, logD of the compound at pH 3; format: physicochemical; settings: buffer
[16] = Metabolic stability in human liver microsomes assessed as compound loss after 60 mins; format: ADME; settings: read-out: Drug degradation
Staphylococcus aureus [17] = assay: Antibacterial activity against methicillin-sensitive Staphylococcus aureus ATCC 6538 after 20 to 24 hrs in presence of 50% heat inactivated bovine serum; format: functional

N=C(N/N=C/c1ccc(Cl)cc1)N/N=C/c1ccc(Cl)cc1 [ROBENIDINE]
Activity (Staphylococcus aureus [1]): >=4 log10CFU/ml | MIC90 (Staphylococcus aureus [2]): 5.4 µM (≈ 1.8 µg/mL) | Activity (Staphylococcus aureus [3]): inactive | Activity (Staphylococcus aureus [4]): >=4 log10CFU/ml | MIC (Enterococcus): 4.7 µM (≈ 1.57 µg/mL) | INH (Staphylococcus aureus [5]): >43.2 µM | MBC (Staphylococcus aureus [6]): 5.4 µM (≈ 1.8 µg/mL) | Ratio (Staphylococcus aureus [7]): 1 | Selectivity Index [8]: 2 | Activity (Staphylococcus aureus [9]): inactive | Activity [10]: >= 173 uM | LD50 [11]: 2900 mg/kg | Selectivity Index [12]: 2 | metabolised at 1 h [13]: < 15% | Activity (Staphylococcus aureus [14]): inactive | logD [15]: 3.7 | metabolised at 1 h [16]: < 15% | MIC90 (Staphylococcus aureus [17]): > 250 µM
